Tests used:
[1] = test system: Wnt activity (Sp5-Luc reporter gene, SW480 colon carcinoma cells); test: Screening assay for Wnt activity: Sp5-Luc reporter gene assay in SW480 cells; format: cell-based, human; conditions: Homo sapiens; for inhibition at 10 µM: given for EC50 of >10 μM, read-out: percent inhibition at 10 μM; for EC50: overnight incubation
How it was run: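 SW480 cells stably transduced with a luciferase reporter driven by an Sp5 promoter of eight TCF/LEF sites were plated at 4,000 cells/well in 1% FBS medium. They were exposed overnight at 37° C to a 10-point 1:3 dilution series from 10 μM (0.1% DMSO). Luminescence was normalized to DMSO for four-parameter EC50, or percent inhibition at 10 μM.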

[2] = test system: SW480 colon cancer cells; test: Cell viability assay (CellTiter-Blue) in SW480 colon cancer cells; format: cell-based, human; conditions: Homo sapiens; for EC50: 96 h, four days, CellTiter-Blue; for inhibition at 10 µM: given for EC50 of >10 μM, read-out: percent inhibition at 10 μM
How it was run: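 SW480 cells (~2×10^3 per well) were exposed to compound for four days at 37 °C/5% CO2, using 8-point 1:3 dilutions from 10 μM to 0.0045 μM in duplicate. Viability was read by resazurin reduction (CellTiter-Blue, ~3 h, Ex 560/Em 590 nm). EC50 came from non-linear regression; above 10 μM, percent inhibition at 10 μM is given.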

[3] = test system: primary human fibroblasts derived from IPF patients (LL29 cells); test: Inhibition of the fibrotic process: αSMA staining in TGF-β1 treated LL29 fibroblasts; format: cell-based; conditions: Homo sapiens, Fibroblast; for EC50: 96 h, TGF-β1 20 ng/mL, 4 days, % αSMA positive cells; for inhibition at 10 µM: given for EC50 of >10 μM, TGF-β1, αSMA, read-out: percent inhibition at 10 μM
How it was run: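 IPF patient-derived LL29 fibroblasts in 1% FBS medium got compound (11-point, 10 μM to 1.87 nM, 0.1% DMSO) plus TGF-β1 20 ng/mL, 4 days at 37° C. αSMA-positive live cells (SYTOX-excluded) were imaged, normalized to TGF-β1 controls and fitted for EC50; % inhibition at 10 μM given when EC50 >10 μM.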

SMILES	EC50 [1]	EC50 [2]	inhibition at 10 µM [1]	inhibition at 10 µM [2]	EC50 [3]	inhibition at 10 µM [3]
c1cc(-c2ccncc2)c2cc(-c3n[nH]c4ncc(-c5ccncc5)cc34)[nH]c2c1 [Compound 111, 5-(Pyridin-4-yl)-3-(4-(pyridin-4-yl)-1H-indol-2-yl)-1H-pyrazolo[3,4-b]pyridine]	> 10 µM	> 10 µM	17.6%	36.4%	2.77 µM	
CC(C)C(=O)Nc1cncc(-c2cnc3[nH]nc(-c4cc5c(N6CCN(C)CC6)cccc5[nH]4)c3c2)c1 [Compound 209, N-(5-(3-(4-(4-Methylpiperazin-1-yl)-1H-indol-2-yl)-1H-pyrazolo[3,4-b]pyridin-5-yl)pyridin-3-yl)isobutyramide]	2.71 µM	> 10 µM		41.5%	5.62 µM	
CC(C)(C)CC(=O)Nc1cncc(-c2cnc3[nH]nc(-c4cc5c(-c6ccccn6)cccc5[nH]4)c3c2)c1 [Compound 133, 3,3-Dimethyl-N-(5-(3-(4-(pyridin-2-yl)-1H-indol-2-yl)-1H-pyrazolo[3,4-b]pyridin-5-yl)pyridin-3-yl)butanamide]	1.01 µM	3.25 µM			0.753 µM	
Fc1ccc(-c2cccc3[nH]c(-c4n[nH]c5ncc(-c6cncc(CN7CCCCC7)c6)cc45)cc23)cc1 [Compound 36, 3-(4-(4-Fluorophenyl)-1H-indol-2-yl)-5-(5-(piperidin-1-ylmethyl)pyridin-3-yl)-1H-pyrazolo[3,4-b]pyridine]	3.66 µM	> 10 µM		59.2%	2.44 µM	
O=C(Nc1cncc(-c2cnc3[nH]nc(-c4cc5c(-c6cccnc6)cccc5[nH]4)c3c2)c1)C1CCC1 [Compound 89, N-(5-(3-(4-(Pyridin-3-yl)-1H-indol-2-yl)-1H-pyrazolo[3,4-b]pyridin-5-yl)pyridin-3-yl)cyclobutanecarboxamide]	0.23 µM	0.565 µM			0.147 µM	
c1cncc(-c2cnc3[nH]nc(-c4cc5c(-c6cccnc6)cccc5[nH]4)c3c2)c1 [Compound 74, 5-(Pyridin-3-yl)-3-(4-(pyridin-3-yl)-1H-indol-2-yl)-1H-pyrazolo[3,4-b]pyridine]	0.57 µM	3.52 µM			0.41 µM	
Fc1cccc(-c2cccc3[nH]c(-c4n[nH]c5ncc(-c6ccncc6)cc45)cc23)c1 [Compound 15, 3-(4-(3-Fluorophenyl)-1H-indol-2-yl)-5-(pyridin-4-yl)-1H-pyrazolo[3,4-b]pyridine]	> 10 µM	> 10 µM	26%	31.5%	1.7 µM	
CC(C)(C)C(=O)Nc1cncc(-c2cnc3[nH]nc(-c4cc5c(-c6ccc(F)cc6)cccc5[nH]4)c3c2)c1 [Compound 30, N-(5-(3-(4-(4-Fluorophenyl)-1H-indol-2-yl)-1H-pyrazolo[3,4-b]pyridin-5-yl)pyridin-3-yl)pivalamide]	2.05 µM	> 10 µM		13.9%	4.16 µM	
O=C(Nc1cncc(-c2cnc3[nH]nc(-c4cc5c(-c6cccc(F)c6)cccc5[nH]4)c3c2)c1)C1CCCCC1 [Compound 19, N-(5-(3-(4-(3-Fluorophenyl)-1H-indol-2-yl)-1H-pyrazolo[3,4-b]pyridin-5-yl)pyridin-3-yl)cyclohexanecarboxamide]	1.48 µM	> 10 µM		11.1%	> 10 µM	28.9%
CC(C)(C)CC(=O)Nc1cncc(-c2cnc3[nH]nc(-c4cc5ccccc5[nH]4)c3c2)c1 [Compound 242, N-(5-(3-(1H-Indol-2-yl)-1H-pyrazolo[3,4-b]pyridin-5-yl)pyridin-3-yl)-3,3-dimethylbutanamide]	1.64 µM	> 10 µM		14.3%	> 10 µM	0%
Fc1ccc(-c2cccc3[nH]c(-c4n[nH]c5ncc(-c6cncc(CN7CCCC7)c6)cc45)cc23)cc1 [Compound 35, 3-(4-(4-Fluorophenyl)-1H-indol-2-yl)-5-(5-(pyrrolidin-1-ylmethyl)pyridin-3-yl)-1H-pyrazolo[3,4-b]pyridine]	2.3 µM	4.83 µM			2.35 µM	
O=C(Nc1cncc(-c2cnc3[nH]nc(-c4cc5c(-c6ccccc6F)cccc5[nH]4)c3c2)c1)C1CCCC1 [Compound 66, N-(5-(3-(4-(2-Fluorophenyl)-1H-indol-2-yl)-1H-pyrazolo[3,4-b]pyridin-5-yl)pyridin-3-yl)cyclopentanecarboxamide]	1.15 µM	> 10 µM		53.2%	6.53 µM	
O=C(Nc1cncc(-c2cnc3[nH]nc(-c4cc5c(-c6ccc(F)cc6)cccc5[nH]4)c3c2)c1)c1ccccc1 [Compound 32, N-(5-(3-(4-(4-Fluorophenyl)-1H-indol-2-yl)-1H-pyrazolo[3,4-b]pyridin-5-yl)pyridin-3-yl)benzamide]	2.83 µM	> 10 µM		32.5%	4.95 µM	

Now from value to compound, other results behind:

EC50 [1]	EC50 [2]	SMILES	inhibition at 10 µM [1]	inhibition at 10 µM [2]	EC50 [3]	inhibition at 10 µM [3]
3.71 µM	> 10 µM	O=C(CC1CCNCC1)Nc1cncc(-c2cnc3[nH]nc(-c4cc5c(-c6ccccn6)cccc5[nH]4)c3c2)c1 [Compound 595, 2-(Piperidin-4-yl)-N-(5-(3-(4-(pyridin-2-yl)-1H-indol-2-yl)-1H-pyrazolo[3,4-b]pyridin-5-yl)pyridin-3-yl)acetamide]		11.3%	5.61 µM	
3.96 µM	> 10 µM	c1ccc(CNCc2cncc(-c3cnc4[nH]nc(-c5cc6ncccc6[nH]5)c4c3)c2)cc1 [Compound 502, 1-(5-(3-(1H-Pyrrolo[3,2-b]pyridin-2-yl)-1H-pyrazolo[3,4-b]pyridin-5-yl)pyridin-3-yl)-N-benzylmethanamine]		9.8%	3.12 µM	
1 µM	2.99 µM	FC1(F)CCN(Cc2cncc(-c3cnc4[nH]nc(-c5cc6c(-c7ccoc7)cccc6[nH]5)c4c3)c2)C1 [Compound 308, 5-(5-((3,3-Difluoropyrrolidin-1-yl)methyl)pyridin-3-yl)-3-(4-(furan-3-yl)-1H-indol-2-yl)-1H-pyrazolo[3,4-b]pyridine]			3.21 µM	
0.215 µM	1.23 µM	CN(C)CCNc1cc(F)cc(-c2cccc3[nH]c(-c4n[nH]c5ncc(-c6cncc(NC(=O)C7CCC7)c6)cc45)cc23)c1 [Compound 443, N-(5-(3-(4-(3-((2-(Dimethylamino)ethyl)amino)-5-fluorophenyl)-1H-indol-2-yl)-1H-pyrazolo[3,4-b]pyridin-5-yl)pyridin-3-yl)cyclobutanecarboxamide]			0.99 µM	
9.77 µM	> 10 µM	Oc1cncc(-c2cnc3[nH]nc(-c4cc5c(-c6cccs6)cccc5[nH]4)c3c2)c1 [Compound 711, 5-(3-(4-(Thiophen-2-yl)-1H-indol-2-yl)-1H-pyrazolo[3,4-b]pyridin-5-yl) pyridin-3-ol]		10.3%	0.456 µM	
3.34 µM	3.72 µM	Cc1ncc(-c2cnc3[nH]nc(-c4cc5ccccc5[nH]4)c3c2)n1C [Compound 655, 5-(1,2-Dimethyl-1H-imidazol-5-yl)-3-(1H-indol-2-yl)-1H-pyrazolo[3,4-b]pyridine]			3.88 µM	
